From BindingDB's records for doi:10.1021/acs.jmedchem.0c00337 (Peking Union Medical College, 2020)

Assay: Reversal of Pgp-mediated DOX resistance in human SW620/AD300 cells assessed as concentration required to show half of DOX IC50 incubated for 48 hrs by SRB assay

COc1cc2c(cc1OC)CN(CCc1ccc(NC(=O)/C=C/c3ccc(Oc4ccc(-c5ccccn5)c(Cl)c4)nc3)cc1)CC2 and COc1cc2c(cc1OC)CN(CCc1ccc(NC(=O)/C=C/c3ccc(Oc4ccc(-c5ccccn5)c(C#N)c4)nc3)cc1)CC2 are within 1.5-fold of each other in EC50: 0.037 µM for the first, 0.051 µM for the second.

For COc1cc2c(cc1OC)CN(CCc1ccc(NC(=O)/C=C/c3ccc(Oc4ccc(-c5cccnc5)cc4)nc3)cc1)CC2, the EC50 was 0.103 µM.

Assay: Reversal of Pgp-mediated DOX resistance in human SW620/AD300 cells assessed as potentiation of DOX-induced cytotoxicity by measuring DOX IC50 at 1 uM incubated for 48 hrs by SRB assay (Rvb = 33.39 +/- 7.08 uM)

COc1ccc2c(C)c(CC(=O)Nc3ccc(CCN4CCc5cc(OC)c(OC)cc5C4)cc3)c(=O)oc2c1 and COc1cc2c(cc1OC)CN(CCc1ccc(NC(=O)/C=C/c3c(-c4ccccc4)oc4ccccc4c3=O)cc1)CC2 are within 1.5-fold of each other in IC50: 1.97 µM for the first, 1.36 µM for the second.

COc1cc2c(cc1OC)CN(CCc1ccc(NC(=O)/C=C/c3ccc(Oc4ccc(-c5ccccn5)cc4C)nc3)cc1)CC2 and COc1cc2c(cc1OC)CN(CCc1ccc(NC(=O)/C=C/c3ccc(Oc4ccc(-c5ccccn5)cc4I)nc3)cc1)CC2 are within 1.5-fold of each other in IC50: 0.74 µM for the first, 0.76 µM for the second.

COc1cc2c(cc1OC)CN(CCc1ccc(NC(=O)/C=C/c3c(-c4ccccc4)n(C)c4ncccc34)cc1)CC2 and COc1cc2c(cc1OC)CN(CCc1ccc(NC(=O)C(O)c3c(-c4ccccc4)n(C)c4ccccc34)cc1)CC2 (configuration not stated) are within 1.5-fold of each other in IC50: 0.82 µM for the first, 1.1 µM for the second.

COc1cc2c(cc1OC)CN(CCc1ccc(NC(=O)C(c3c(-c4ccccc4)n(C)c4ccccc34)N3CCOCC3)cc1)CC2 (configuration not stated) and COc1cc2c(cc1OC)CN(CCc1ccc(NC(=O)/C=C/c3cc(-c4ccccn4)cc(C)c3Oc3ccccn3)cc1)CC2 are the same in IC50: 0.55 µM for the first, 0.55 µM for the second.

COc1cc2c(cc1OC)CN(CCc1ccc(NC(=O)/C=C/c3ccc(Oc4ccc(-c5ccccn5)c(O)c4)nc3)cc1)CC2 and COc1cc2c(cc1OC)CN(CCc1ccc(NC(=O)/C=C/c3ccc(Oc4ccc(-c5ccccn5)c(Cl)c4)nc3)cc1)CC2 are within 1.5-fold of each other in IC50: 0.82 µM for the first, 0.56 µM for the second.

COc1cc2c(cc1OC)CN(CCc1ccc(NC(=O)C3CC3c3ccc(Oc4ccc(-c5ccccn5)cc4)nc3)cc1)CC2 (configuration not stated) and COc1cc2c(cc1OC)CN(CCc1ccc(NC(=O)/C=C/c3cccc(Oc4ccc(-c5ccccn5)cc4)n3)cc1)CC2 are within 1.5-fold of each other in IC50: 0.76 µM for the first, 0.99 µM for the second.

Going from COc1cc2c(cc1OC)CN(CCc1ccc(NC(=O)/C=C/c3ccc(Oc4ccc(-c5cccnc5)cc4)nc3)cc1)CC2 to COc1cc2c(cc1OC)CN(CCc1ccc(NC(=O)/C=C/c3ccc(Oc4cccc(-c5ccccn5)c4)nc3)cc1)CC2, the IC50 rises from 0.39 µM to 0.75 µM (1.9-fold). The first is the more potent here.

Compared with COc1cc2c(cc1OC)CN(CCc1ccc(NC(=O)/C=C/c3ccc(Oc4cc(O)c(-c5ccccn5)c(O)c4)nc3)cc1)CC2, COc1cc2c(cc1OC)CN(CCc1ccc(NC(=O)/C=C/c3ccc(Oc4ccc(-c5ccccn5)c(C)c4)nc3)cc1)CC2 is 1.6-fold lower in IC50: 0.78 µM for the first, 0.49 µM for the second. The second is the more potent here.

First: COc1cc2c(cc1OC)CN(CCc1ccc(NC(=O)/C=C/c3ccc(Oc4c(I)cc(-c5ccccn5)cc4I)nc3)cc1)CC2
Second: COc1cc2c(cc1OC)CN(CCc1ccc(NC(=O)/C=C/c3ccc(Oc4ccc(-c5ccccn5)cc4Br)nc3)cc1)CC2
The IC50 of the first is 1.7-fold higher: 1.18 µM for the first, 0.7 µM for the second. The second is the more potent here.

In the case of COc1cc2c(cc1OC)CN(CCc1ccc(NC(=O)/C=C/c3ccc(Oc4ccc(-c5ccccn5)c(C#N)c4)nc3)cc1)CC2, the IC50 is reported as 0.61 µM.
